Measured values taken from US20070274916A1, “Method for Identifying Compounds that Affect Expression of Tryptophan Hydroxylase Isoform 2” (priority 2003, published 2007).

Columns and labels:
Assay type in all cases: in vivo, mouse
TPH1 mRNA [1] = experiment: TPH1 mRNA levels in murine raphe slice preparation by real-time RT-PCR
From the text: Female mice (13 to 16 wks of age) were ovariectomized (C57BL/6s from Charles River; ER Knockout animals from Taconic). Animals were fed a soy-free rodent chow and allowed a minimum of one week to recuperate from surgery and shipping. […] Approximately six hours following the fourth dose, mice were deeply anesthetized with ketamine/xylazine and brains were removed from the skull, placed ventral side up in a mouse brain block on ice, and ice-cold razor blades were inserted into the block at 1 mm intervals. The caudal extent of the hypothalamus was used as an anatomical marker for the placement of the first razor blade, and 4 blades were placed in sequential slots, caudally. The four sections were examined and the two that encompassed the greatest extent of the dorsal raphe were placed in a tube containing RNALATER (Ambion, Austin, Tex.) and placed at 4° C. overnight. Brain slices were removed from RNALATER after 24 hours and stored at −80° C. in fresh tubes.
Isolation of total RNA from mouse raphe slices for real-time PCR analysis using the TAQMAN ABI PRISMS 7700 Detection System, Applied Biosystems, Foster City, Calif. was as follows. Samples were stored in RNALATER at 4° C. overnight followed by removal of RNALATER and storage at −80° C. until isolation of the total RNA (2 slices weigh 25 to 50 mg). Slices were removed from −80° C. and placed in 1.0 mL TRIZOL Reagent in FASTPREP processing tubes. Slices were homogenized with one pass at setting 6 for 30 seconds in FASTPREP 120 homogenizer using LYSING MATRIX D tubes with bead matrix followed by 20 seconds at setting 6 after all samples had been processed. Samples were set at room temperature for 5 minutes to allow for complete dissociation of nucleoprotein complexes followed by centrifugation of the samples at 12,000×g for 5 minutes at 4° C. Homogenates were transferred to 1.5 mL; microcentrifuge tubes and 100 μL BCP (Bromo-3-chloropropane) was added. Samples were vortexed for 15 seconds and set at room temperature for 2 to 3 minutes. Samples were centrifuged at 12,000×g for 15 minutes at 4° C. The aqueous layer was removed and placed in a new RNAse-free sterile 1.5 mL microcentrifuge tube. Five μL of 5 mg/μL glycogen was added to each sample and the samples were vortexed. Five hundred μL of isopropanol was added to each sample. The samples were vortexed for 15 seconds, set at room temperature 10 minutes, followed by centrifugation at 12,000×g for 15 minutes at 4° C. Supernatants were decanted and pellets washed with 500 μL ice cold 75% ethanol. Samples were centrifuged at 12,000×g for 15 minutes at 4° C., ethanol decanted, and pellets air dried for 10 minutes. Pellets were resuspended in 30 μL prewarmed RNASECURE (60° C.), and heated at 60° C. for 10 min. Samples were stored at −80° C. until DNAse treatment and cDNA synthesis.
DNase treatment and cDNA preparation with wt mouse raphe slice total RNA for TAQMAN analysis. DNase treatment using DNA-free kit (Ambion). Five μg of the total RNA sample was aliquotted to each well of a 96 well plate. An 1× DNase I solution was added to each sample (DNase I buffer, DNase I, H2O). Reactions were mixed and incubated at 37° C. for 30 minutes. Reactions were inactivated by addition of DNase inactivation reagent beads, mixed well at room temperature for 3 minutes and centrifuged at 2,500 RPM for 1 minutes at 4° C. (25 μL reactions were run and inactivated with 1/10 volume of inactivation reagent).
Reverse Transcription. A 10 μL of the DNase I-treated total RNA was added to 40 μL of 1× reverse transcription reaction mix (DEPC treated H2O, RT buffer, MgCl2, dNTP mix, random hexamers, RNase inhibitor, and MULTISCRIBE RT) and incubated at 25° C. for 10 minutes, 48° C. for 30 minutes, and 95° C. for 5 minutes. Reverse transcription was halted by the addition of EDTA. Samples were transferred to a storage plate and stored at −20° C. […]

TPH1 mRNA [2] = experiment: TPH1 mRNA in murine DRN by in situ hybridization histochemistry (TPH1-892 antisense riboprobe); conditions: 0.2 mpk s.c. once daily for four days; ovariectomized mice; FIG. 5A
TPH2 mRNA = TPH2 mRNA in murine DRN by in situ hybridization histochemistry; conditions: for reduction of TPH2 mRNA levels in DRN (densitometry): ovariectomized female mice, FIG. 13B
[3] = Uterine weight of ovariectomized female mice; conditions: FIG. 12
TPH1 mRNA [4] = experiment: TPH1 message levels in ER-β knockout mice
Description: Female mice (13 to 16 wks of age) were ovariectomized (C57BL/6s from Charles River; ER Knockout animals from Taconic). Animals were fed a soy-free rodent chow and allowed a minimum of one week to recuperate from surgery and shipping. Mice were dosed subcutaneously in the morning (once daily for 4 days) with 0.1 cc of vehicle (sesame oil) or compound (3, 10, or 20 mpk dexamethasone, RU486, estradiol, or prednisolone as indicated). Approximately six hours following the fourth dose, mice were deeply anesthetized with ketamine/xylazine and brains were removed from the skull, placed ventral side up in a mouse brain block on ice, and ice-cold razor blades were inserted into the block at 1 mm intervals. The caudal extent of the hypothalamus was used as an anatomical marker for the placement of the first razor blade, and 4 blades were placed in sequential slots, caudally. The four sections were examined and the two that encompassed the greatest extent of the dorsal raphe were placed in a tube containing RNALATER (Ambion, Austin, Tex.) and placed at 4° C. overnight. Brain slices were removed from RNALATER after 24 hours and stored at −80° C. in fresh tubes.

CC#C[C@]1(O)CC[C@H]2[C@@H]3CCC4=CC(=O)CCC4=C3[C@@H](c3ccc(N(C)C)cc3)C[C@@]21C [mifepristone]
change of TPH1 mRNA levels in response to treatment (TPH1 mRNA [1]; murine raphe slice preparations, dose not stated, FIG. 6): no detectable change

C[C@]12CC[C@@H]3c4ccc(O)cc4CC[C@H]3[C@@H]1CC[C@@H]2O [17β-estradiol]
TPH1 mRNA induction in raphe slice (TPH1 mRNA [1]; 0.2 mpk s.c. once daily for four days, ovariectomized mice, FIG. 6): 1.8 fold
effect on TPH1 mRNA in the DRN (TPH1 mRNA [1]; male and female mice, data not shown): induces
TPH1 mRNA induction in the DRN (TPH1 mRNA [2]): 3 fold
effect on TPH2 mRNA in the DRN (TPH2 mRNA; 0.2 mpk s.c. once daily for four days, ovariectomized mice, TPH2c riboprobe, FIG. 5B): no apparent effect
uterine weight measurements [3]: dramatically induced
effect on TPH1 message levels (TPH1 mRNA [4]): no effect

C[C@@H]1C[C@H]2[C@@H]3CCC4=CC(=O)C=C[C@]4(C)[C@@]3(F)[C@@H](O)C[C@]2(C)[C@@]1(O)C(=O)CO [dexamethasone]
effect on TPH1 mRNA levels (TPH1 mRNA [1]; 3 mpk s.c., ovariectomized mice, FIG. 6): no effect
reduction of TPH2 mRNA levels in DRN (densitometry) (TPH2 mRNA; 3 mg/kg s.c. once daily for four days): 28%
reduction of TPH2 mRNA levels in DRN (densitometry) (TPH2 mRNA; 10 mg/kg s.c. once daily for four days): 36%
